Legend:
Experiment in all cases: Example B2 herbicidal action, post-emergence, pots in glasshouse, damage score 0-10
Type in all cases: in vivo
Conditions in all cases: application post-emergence, rate 1000 g/ha, evaluated after 13 days
Ipomea hederaceae = test system: Ipomea hederaceae
Method: (§1) Seeds of a variety of test species were sown in standard soil in pots. After 8 days cultivation (post-emergence) under controlled conditions in a glasshouse (at 24/16° C., day/night; 14 hours light; 65% humidity), the plants were sprayed with an aqueous spray solution derived from the formulation of the technical active ingredient in acetone/water (50:50) solution containing 0.5% Tween 20 (polyoxyethelyene sorbitan monolaurate, CAS RN 9005-64-5). The test plants were then grown in a glasshouse under controlled conditions in a glasshouse (at 24/16° C., day/night; 14 hours light; 65% humidity) and watered twice daily. After 13 days, the test was evaluated (10=total damage to plant; 0=no damage to plant).

Amaranthus retroflexus = test system: Amaranthus retroflexus
Method: as §1

Solanum nigrum = test system: Solanum nigrum
Method: as §1

Setaria faberi = test system: Setaria faberi
Method: as §1

Echinochloa crus-galli = test system: Echinochloa crus-galli
Method: as §1

SMILES	IPOHE damage score (10=total damage to plant; 0=no damage to plant) (Ipomea hederaceae)	AMARE damage score (10=total damage to plant; 0=no damage to plant) (Amaranthus retroflexus)	SOLNI damage score (10=total damage to plant; 0=no damage to plant) (Solanum nigrum)	SETFA damage score (10=total damage to plant; 0=no damage to plant) (Setaria faberi)	ECHCG damage score (10=total damage to plant; 0=no damage to plant) (Echinochloa crus-galli)
CC(C)C(=O)OC1=C(c2ccccc2SC(F)(F)F)S(=O)(=O)N(CC(F)F)c2nccnc21 [Compound C18]	6	9	3	0	1
O=S1(=O)C(c2c(Cl)ccc(Cl)c2Cl)=C(O)c2nccnc2N1CC(F)F [Compound D17]	10	10	10	9	9
CCN1c2nccnc2C(OC(=O)C(C)(C)C)=C(c2cc(C(F)(F)F)ccc2Br)S1(=O)=O [Compound C69]	7	4	6	0	2
CC(C)C(=O)OC1=C(c2cc(Cl)ccc2C(F)(F)F)S(=O)(=O)N(CC(F)F)c2nccnc21 [Compound C113]	9	8	10	6	7
CC(C)(C)C(=O)OC1=C(c2ccc(Cl)cc2Cl)S(=O)(=O)N(CC(F)(F)F)c2nccnc21 [Compound C104]	9	10	10	3	6
CC(C)(C)C(=O)OC1=C(c2ccccc2C(F)(F)F)S(=O)(=O)N(CC(F)F)c2nccnc21 [Compound C62]	8	7	6	6	4
O=S1(=O)C(c2ccc(I)cc2Cl)=C(O)c2nccnc2N1CC(F)F [Compound D59]	4	4	8	1	3
CCN1c2nccnc2C(OC(=O)C(C)(C)C)=C(c2cc(Cl)ccc2C(F)(F)F)S1(=O)=O [Compound C108]	3	4	7	2	3
CC(C)(C)C(=O)OC1=C(c2cc(-c3cccc(Cl)c3)ccc2Cl)S(=O)(=O)N(CC(F)F)c2nccnc21 [Compound C56]	0	10	2	0	0
CC(C)(C)C(=O)OC1=C(c2cccc(Cl)c2Cl)S(=O)(=O)N(CC(F)F)c2nccnc21 [Compound C100]	6	4	9	2	2
CCN1c2nccnc2C(O)=C(c2ccc(Cl)cc2C(F)(F)F)S1(=O)=O [Compound D10]	9	9	10	2	4
CCN1c2nccnc2C(O)=C(c2c(F)cccc2C(F)(F)F)S1(=O)=O [Compound D21]	9	8	9	6	6
Cc1ccc(F)c(C2=C(O)c3nccnc3N(CC(F)F)S2(=O)=O)c1Cl [Compound D12]	5	6	9	2	0
CCN1c2nccnc2C(OC(=O)C(C)C)=C(c2c(Cl)ccc(Cl)c2C(F)(F)F)S1(=O)=O [Compound C50]	7	5	6	4	5
CCN1c2nccnc2C(O)=C(c2cc(Cl)ccc2C(F)(F)F)S1(=O)=O [Compound D52]	5	5	7	4	4
CCSC(=O)OC1=C(c2c(Cl)ccc(Cl)c2Cl)S(=O)(=O)N(CC)c2nccnc21 [Compound C71]	10	8	9	1	6
CC(C)(C)C(=O)OC1=C(c2cc(Cl)ccc2C(F)(F)F)S(=O)(=O)N(CC(F)F)c2nccnc21 [Compound C111]	9	8	9	6	6
CCOC(=O)OC1=C(c2cc(C)ccc2C(F)(F)F)S(=O)(=O)N(CC(F)F)c2nccnc21 [Compound C147, carbonic acid 1-(2,2-difluoro-ethyl)-3-(5-methyl-2-trifluoromethyl-phenyl)-2,2-dioxo-1,2-dihydro-2-λ-6-thia-1,5,8-triaza-naphthalen-4-yl ester ethyl ester]	9	1	9	3	2
CCSC(=O)OC1=C(c2c(F)ccc(Cl)c2Cl)S(=O)(=O)N(CC(F)F)c2nccnc21 [Compound C32]	9	8	8	1	7
CCN1c2nccnc2C(OC(=O)C(C)C)=C(c2cccc(C(F)(F)F)c2Cl)S1(=O)=O [Compound C75]	2	5	6	0	1
O=S1(=O)C(c2cc(C(F)(F)F)ccc2Br)=C(O)c2nccnc2N1CC(F)F [Compound D30]	10	10	10	3	6
CC(C)(C)C(=O)OC1=C(c2cc(F)c(Cl)cc2Cl)S(=O)(=O)N(CC(F)F)c2nccnc21 [Compound C47]	7	10	10	7	4
C#CCN1c2nccnc2C(OC(=O)SCC)=C(c2c(Cl)ccc(Cl)c2C(F)(F)F)S1(=O)=O [Compound C85]	9	7	10	6	7
O=S1(=O)C(c2cc(I)ccc2Cl)=C(O)c2nccnc2N1CC(F)F [Compound D29]	7	5	7	3	2
O=S1(=O)C(c2cc(Cl)ccc2C(F)(F)F)=C(O)c2nccnc2N1CC(F)F [Compound D53]	7	8	10	6	6

— patent publication US8133849B2, “Herbicidal compounds” (Syngenta Limited, priority 2007, dated 2012)
